Results on three molecules are retold here after patent publication US8361797B2, “Myeloma cell culture in transferrin-free low iron medium” (Medimmune Limited, priority 2003, dated 2013).

The test system of assay [1] is recombinant GS-NS0 mouse myeloma cell line (Cell line A). The class given is cell-based.
Assay [2] has the same test system. The format is cell-based. This is another data set of the same source.
In the next assay the test system is hybridoma cell lines. The following applies: cited from earlier work.
The next assay relates to hybridoma cells. The following applies: cited from earlier work.
Assay [3] concerns mouse hybridoma cell line (9E10). As for the experimental part:
A mouse hybridoma cell line (9E10), producing anti-Myc antibody, previously subcultured in modified CDSS supplemented with 1 mg/L human transferrin and 6 mM Glutamine was used to inoculate experimental flasks at an inoculation density of 1×10^5 cells/ml.
Flasks were subcultured by dilution with fresh medium back to 1×10^5 cells/ml at 3 day intervals. On the third subculture flasks were allowed to overgrow. Cell counts were performed using the trypan blue exclusion method.

Assay [4] relates to recombinant GS-NS0 cell line (Cell line B). How it is done: Cells resuspended in this medium were then used to inoculate experimental flasks at an inoculation density of 2×10^5 cells/ml.
All flasks were also supplemented with 1 ml/L of a 1000× concentrated cholesterol and fatty acid supplement (CLOC).
Flasks were subcultured by dilution with fresh medium back to 2×10^5 cells/ml at 5 day intervals. On the second subculture flasks were allowed to overgrow to saturation. Cell counts were performed using the trypan blue exclusion method. Antibody titre analysis was performed using analytical protein A hplc against a homologous standard.

Another assay deals with cell line A. The following applies: 1 mg/L FAC, serum free and protein free GSF medium. An excerpt: Innoculum for these fermentations was provided by subculture of the cells in media the same as that used in the fermentations.
Assay [5] deals with GS-NSO cell lines (Cell Lines C, D and E). The following applies: protein free FAC medium, 4.5 L and 100 L. As for the experimental part:
Cell Line C was grown at both 4.5 and 100 L scale, Cell Line D at 4.5 L scale and Cell Line E at 100 L scale.

Assay [6] has as its system recombinant NS0 mouse myeloma cell line selected using a G418 selection system. The following applies: 1 mg/L FAC vs 1 mg/L transferrin and 0.1 mg/L FAC. An excerpt:
After 5 days, flasks were subcultured and then allowed to follow the full growth cycle.

The next assay relates to NSO myeloma cell lines. The following applies: FAC alone, 0.2 mg/L; cited from earlier work.

“Also recorded” adds a separate entry of the source. Read-outs that look alike come from different tables or passages of the source. Bounds are passed on as bounds.

For the molecule `O=C([O-])CC(O)(CC(=O)[O-])C(=O)[O-].[Fe+3]` [FC, ferric citrate], in [1], the “concentration giving growth equivalent to transferrin containing control (maximum viable cell number and area underneath the growth curve)” value is recorded as ≥ 10 mg/L; the “concentration of FC relative to FAC required for cell growth equivalent to transferrin” value was found to be 10 ×; the proliferation over subcultures result is on record as “unable to proliferate beyond the first subculture; also recorded: unable to proliferate beyond the second subculture”. Besides, the “antibody titre compared to the transferrin containing control” value in [2] was “at least as much, and in the case of 10 mg/L FC significantly more antibody”. Also, the “concentration required to support hybridoma cell growth with equivalence to transferrin” value with hybridoma cell lines is 500 µM.

As for `O=c1cccccc1O` [tropolone, reference compound], the optimum concentration in the assay with hybridoma cells (tropolone used with FAC) was 5 µM.

As to ferric ammonium citrate [FAC], the proliferation over subcultures result in assay [1] (0.2 mg/L) is on record as “able to proliferate after the first division, but was then unable to grow further”; in assay [3] (0.2 mg/L) it was “unable to proliferate beyond the first subculture”; in [3] (0.4 mg/L) it was “unable to proliferate beyond the first subculture”; in assay [3] (1 mg/L) it was “unable to proliferate beyond the second subculture”; in assay [3] (2 mg/L), “unable to proliferate beyond the second subculture”; in assay [3] (10 mg/L), “unable to proliferate beyond the second subculture”. In addition, the “concentration able to support continuous cell growth” value in [1] (duplicate of the experiment (FIG. 1c)) is 0.2 mg/L. Also, in assay [1] (modified CDSS, no transferrin, agitated suspension, three subcultures at 3 day intervals), the “concentration able to support continuous cell growth over several subcultures and during the overgrow culture” value is ≥ 0.4 mg/L. Also, the “concentration giving growth equivalent to transferrin containing control (maximum viable cell number and area underneath the growth curve)” value in [1] (overgrow cultures) was ≥ 1 mg/L. In addition, the “more antibody produced at 0.4 mg/L than at 100 mg/L” value in assay [2] (culture with 0.4 mg/L vs culture with 100 mg/L) is given as “over 30%”. Moreover, the “antibody titre compared to the transferrin containing control” value in assay [2] (overgrow cultures, sandwich ELISA) is “at least as much, and in the majority of the cases significantly more antibody”. Also, the “FAC concentration required by hybridoma cell lines relative to GS-NS0 cells for continuous cell growth” value in [3] (agitated suspension culture) is listed as > 100 ×. For the same molecule, in assay [3] (hybridoma 9E10, agitated suspension), the “concentration required to support growth” value is on record as ≥ 50 mg/L. Also, the “concentration required for growth equivalent to transferrin containing control, maximum viable cell number” value in [3] (overgrow cultures) was 100 mg/L. For the same molecule, in assay [3] (overgrow cultures, integral of area underneath growth curve), the “concentration giving growth equivalent to transferrin containing control, cumulative cell hours (CCH)” value came out at 50 mg/L. The “concentration supporting growth equivalent to positive control culture” value in assay [4] (control 5 μM tropolone and 0.4 mg/L FAC, GSF medium) is reported as ≥ 0.8 mg/L. For the same molecule, the “concentration supporting antibody production at least equivalent to control” value in assay [4] (overgrow cultures, protein A hplc) was ≥ 0.8 mg/L. Besides, in the assay on cell line A, the “growth and antibody production” value was “able to support good growth and antibody production in both media”. Further, the “growth and antibody productivity” value in assay [5] was “supports good growth of, and antibody productivity in, a wide range of cell lines”. The “growth vs transferrin containing medium” value in [6] is listed as “Equivalent growth”. Also, the “support of hybridoma growth” value was “able to support hybridoma growth in static culture” in the assay with hybridoma cell lines (10 mg/L, static culture, WO 94/02592); “this was not the case in agitated suspension culture” in the assay on hybridoma cells (10 mg/L, agitated suspension culture, WO 94/02592); “incapable of supporting the growth of hybridoma cells” with hybridoma cells (FAC alone, between 0.1 and 10 mg/L, no transferrin or tropolone). In addition, in the assay on hybridoma cells (FAC used with tropolone), the optimum concentration is reported as 0.2 mg/L. The “support of NSO myeloma growth” value in the assay with NSO myeloma cell lines was “could not support the growth of the NSO myeloma cell lines”.
